Test results from PMC9486808 (ACS Chemical Biology, 2022).
“Also recorded” adds a separate entry of the source. Positions of bridges follow the written chain, without caps; N, C: chain ends. Non-standard residues stand in square brackets, D forms with d. Residues, ends and D or L forms follow the SMILES beside them.

Key:
Type in all cases: cell-based, Influenza A virus A/California/04/2009 (H1N1)
[1] = target: full length, membrane-bound H1 HA (Influenza A virus, UniProt C3W5S1)
full-length H1 HA I463V = full-length H1 HA I463V (Influenza A virus, UniProt C3W5S1, I477V)
full-length H1 HA I375F = full-length H1 HA I375F (Influenza A virus, UniProt C3W5S1, I389F)

CC(C)C[C@@H]1NC(=O)[C@H](C(C)C)NC(=O)[C@@H](Cc2ccc(O)cc2)NC(=O)CSC[C@@H](C(=O)NCC(N)=O)NC(=O)[C@H](C(C)C)NC(=O)[C@H](Cc2c[nH]c3ccccc23)NC(=O)[C@H](Cc2c[nH]cn2)NC(=O)[C@H]([C@@H](C)O)NC(=O)[C@H](C)NC(=O)[C@H](CC(C)C)NC(=O)[C@H]([C@@H](C)O)NC(=O)CNC(=O)[C@H](Cc2c[nH]cn2)NC(=O)[C@H](CC(=O)O)NC(=O)[C@H](Cc2c[nH]c3ccccc23)NC(=O)[C@H](CCCNC(=N)N)NC(=O)[C@H](Cc2ccccc2)NC1=O [S5] ({CH2CO}-[dY]VLFRWDHGTLATHWVCG-NH2; thioether N-17)
Competition with mAb Fi6 staining [1]: strongly decreased the staining; also recorded: competed with the binding of mAb Fi6
Binding of biotinylated S5 to cell-surface H1 (full-length H1 HA I463V): not by the I463V substitution
Binding of biotinylated S5 to cell-surface H1 (full-length H1 HA I375F): hinders binding; also recorded: affected by the I375F substitution
